Measurements reported in the NIST ThermoML archive (doi:10.1021/je3000469).
± gives the expanded uncertainty stated by the source.

Assays:
[1] = molar heat capacity at constant pressure; wn = mass fraction of the nth substance listed; details: 101 kPa, w1 = 0.561
[2] = wn = mass fraction of the nth substance listed; details: 101 kPa, w1 = 0.561; for viscosity: Capillary tube (Ostwald / Ubbelohde) method; for mass density: Vibrating tube method

O=[N+]([O-])[O-].[Li+] [lithium nitrate] + O
Details	mass density [kg/m3]	molar heat capacity at constant pressure [J/K/mol]	thermal conductivity [W/m/K]	viscosity [mPa·s]
[1], 253.2 K, Crystal of intercomponent compound 1, Small sample (50 mg) DSC	–	48.92 ± 4.9	–	–
[1], 263.2 K, Crystal of intercomponent compound 1, Small sample (50 mg) DSC	–	50.15 ± 4.9	–	–
[1], 273.2 K, Crystal of intercomponent compound 1, Small sample (50 mg) DSC	–	51.38 ± 5.2	–	–
[1], 283.2 K, Crystal of intercomponent compound 1, Small sample (50 mg) DSC	–	52.61 ± 5.2	–	–
[1], 288.2 K, Crystal of intercomponent compound 1, Small sample (50 mg) DSC	–	53.22 ± 5.2	–	–
[2], 253.2 K, Crystal of intercomponent compound 1, Hot disk method	–	–	0.76 ± 0.15	–
[2], 263.2 K, Crystal of intercomponent compound 1, Hot disk method	–	–	0.74 ± 0.15	–
[2], 273.2 K, Crystal of intercomponent compound 1, Hot disk method	–	–	0.77 ± 0.15	–
[2], 283.2 K, Crystal of intercomponent compound 1, Hot disk method	–	–	0.76 ± 0.15	–
[2], 293.2 K, Crystal of intercomponent compound 1, Hot disk method	–	–	0.75 ± 0.15	–
[2], 294.2 K, Crystal of intercomponent compound 1, Hot disk method	–	–	0.82 ± 0.16	–
[2], 308.2 K, Liquid	1425 ± 14	–	–	5.34 ± 0.11
[2], 313.2 K, Liquid	1420 ± 14	–	–	4.8 ± 0.1
[2], 318.2 K, Liquid	1413 ± 14	–	–	4.37 ± 0.09
[2], 323.2 K, Liquid	1408 ± 14	–	–	3.96 ± 0.08
[2], 328.2 K, Liquid	1402 ± 14	–	–	3.6 ± 0.08
[2], 333.2 K, Liquid	1395 ± 14	–	–	3.31 ± 0.07
[2], 338.2 K, Liquid	1390 ± 14	–	–	3.06 ± 0.06
[2], 343.2 K, Liquid	1384 ± 14	–	–	2.84 ± 0.06
[2], 348.2 K, Liquid	1378 ± 14	–	–	2.63 ± 0.06
[2], 353.2 K, Liquid	1372 ± 14	–	–	2.46 ± 0.05

Liquid
Details	molar heat capacity at constant pressure [J/K/mol]	thermal conductivity [W/m/K]
[1], 308.2 K, hot wire method	89.52 ± 9.5	–
[1], 313.2 K, Small sample (50 mg) DSC	84.91 ± 8.6	–
[1], 313.2 K, hot wire method	89.52 ± 9.5	–
[1], 318.2 K, hot wire method	90.45 ± 9.5	–
[1], 323.2 K, Small sample (50 mg) DSC	85.22 ± 8.6	–
[1], 323.2 K, hot wire method	90.45 ± 9.5	–
[1], 328.2 K, hot wire method	91.06 ± 9.5	–
[1], 333.2 K, Small sample (50 mg) DSC	84.91 ± 8.6	–
[1], 333.2 K, hot wire method	91.68 ± 9.8	–
[1], 338.2 K, hot wire method	91.99 ± 9.8	–
[1], 343.2 K, Small sample (50 mg) DSC	85.22 ± 8.6	–
[1], 343.2 K, hot wire method	92.29 ± 9.8	–
[1], 348.2 K, hot wire method	93.22 ± 9.8	–
[1], 353.2 K, Small sample (50 mg) DSC	84.91 ± 8.6	–
[1], 353.2 K, hot wire method	94.45 ± 10	–
[2], 308.2 K, hot wire	–	0.584 ± 0.059
[2], 313.2 K, hot wire	–	0.581 ± 0.059
[2], 318.2 K, hot wire	–	0.587 ± 0.06
[2], 323.2 K, hot wire	–	0.583 ± 0.059
[2], 328.2 K, hot wire	–	0.585 ± 0.059
[2], 333.2 K, hot wire	–	0.588 ± 0.06
[2], 338.2 K, hot wire	–	0.588 ± 0.06
[2], 343.2 K, hot wire	–	0.588 ± 0.06
[2], 348.2 K, hot wire	–	0.595 ± 0.06
[2], 353.2 K, hot wire	–	0.611 ± 0.062
